Values of other authors in patent publication US20200229456A1, “Synergistic Formulation Including At Least One Gibberellin Compound and Salicyclic Acid” (Stoller Enterprises, Inc., priority 2018, published 2020).

What was measured:
tomatoes = settings: GA3 at 0.1%, CaCl2 at 1.5%, SA at 0.4 mM
Cavendish bananas = settings: 300 ppm GA3 or 4 mM SA, versus other treatments
banana slices = settings: GA3 applied exogenously on banana slices
Bananas = settings: SA at either 0.5 mM or 1 mM

Structure (SMILES)	shelf life of tomatoes (tomatoes)	delay in ripening (Cavendish bananas)	postponement of accumulation of sucrose (banana slices) [days]	respiration rate or ethylene profile (banana slices)	fruit firmness (Bananas)	respiration rates (Bananas)	sugar content (Bananas)
[Ca+2].[Cl-].[Cl-] [CaCl2, calcium chloride]	extended the shelf life						
C=C1C[C@]23C[C@@]1(O)CC[C@H]2[C@@]12C=C[C@H](O)[C@@](C)(C(=O)O1)[C@H]2[C@@H]3C(=O)O [GA3, gibberellic acid]	extended the shelf life	more considerable delay in ripening	2	does not alter			
O=C(O)c1ccccc1O [SA, Salicylic acid]	extended the shelf life	more considerable delay in ripening			firmer fruits	decrease in respiration rates	lower sugar content
